Data from the supplement of paper PMC4862054.

Assays:
Assay in all cases: normalised viability (% of control), CellTiter-Blue; higher = more viable cells (about 100 = DMSO control)
Settings in all cases: incubation time: 72 h
HDQ-P1 = system: HDQ-P1
Outline: (§1)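 The reported figure is normalised viability at a single listed concentration of the series. Breast cancer cell lines (20 µl suspension) went onto 384-well plates holding compound in 5 µl medium for 72 h. CellTiter-Blue (2.5 µl, 2 h, 37 °C) was read by fluorescence at 560/590 nm, and each plate was scaled to vehicle at 100 and a positive kill control at 0.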

CAL-148 = system: CAL-148
Outline: as §1

CAL-51 = system: CAL-51
Outline: as §1

MDA-MB-468 = system: MDA-MB-468
Outline: as §1

HCC1599 = system: HCC1599
Outline: as §1

BT-474 = system: BT-474
Outline: as §1

DU-4475 = system: DU-4475
Outline: as §1

CAL-120 = system: CAL-120
Outline: as §1

HCC1937 = system: HCC1937
Outline: as §1

BT-549 = system: BT-549
Outline: as §1

CAL-85-1 = system: CAL-85-1
Outline: as §1

Hs578T = system: Hs578T
Outline: as §1

MDA-MB-453 = system: MDA-MB-453
Outline: as §1

HCC1143 = system: HCC1143
Outline: as §1

SK-BR-3 = system: SK-BR-3
Outline: as §1

C=C(c1ccc(C(=O)O)cc1)c1cc2c(cc1C)C(C)(C)CCC2(C)C [Bexarotene]
normalised viability [%]
Settings	3 nM	10 nM	30 nM	100 nM	1000 nM	10000 nM
BT-474	–	103	–	–	95.7	97.7
BT-549	–	89.5	–	–	75.6	74.5
CAL-51	82	–	88.7	88.5	–	–
CAL-85-1	94.9	–	91.6	92	–	–
CAL-120	–	101	–	–	108	106
CAL-148	110	–	92.7	99.8	–	–
DU-4475	98.7	–	102	103	–	–
HCC1143	–	123	–	–	117	104
HCC1599	–	81.2	–	–	72.2	82.1
HCC1937	–	82.3	–	–	82.2	82.1
HDQ-P1	89.3	–	84.9	102	–	–
Hs578T	–	99	–	–	105	75.3
MDA-MB-453	91	–	91.3	74.5	–	–
MDA-MB-468	–	108	–	–	100	110
SK-BR-3	–	100	–	–	89.8	83.1

CN(C)/N=N/c1[nH]cnc1C(N)=O [Dacarbazine]
normalised viability [%]
Settings	3 nM	10 nM	30 nM	100 nM	1000 nM	10000 nM
BT-474	–	126	–	–	122	119
BT-549	–	103	–	–	89.2	106
CAL-51	92.7	–	88.9	88.9	–	–
CAL-85-1	95.8	–	84.6	90.5	–	–
CAL-120	–	88.2	–	–	83.8	79.5
CAL-148	84.4	–	96	99.2	–	–
DU-4475	90.4	–	89.6	92.4	–	–
HCC1143	–	76.3	–	–	106	84.2
HCC1599	–	93.8	–	–	97.1	86.7
HCC1937	–	98	–	–	87.3	98.5
HDQ-P1	107	–	100	110	–	–
Hs578T	–	119	–	–	113	94.8
MDA-MB-453	103	–	102	102	–	–
MDA-MB-468	–	104	–	–	104	88.8
SK-BR-3	–	104	–	–	95.3	100

CCC1(c2ccc(N)cc2)CCC(=O)NC1=O (stereo not given) [Aminoglutethimide]
normalised viability [%]
Settings	3 nM	10 nM	30 nM	100 nM	1000 nM	10000 nM
BT-474	–	107	–	–	104	105
BT-549	–	84.2	–	–	101	76.4
CAL-51	87.2	–	92.6	92.8	–	–
CAL-85-1	104	–	89.6	103	–	–
CAL-120	–	111	–	–	116	108
CAL-148	108	–	105	106	–	–
DU-4475	107	–	86.9	85.2	–	–
HCC1143	–	124	–	–	115	122
HCC1599	–	90.8	–	–	92.7	95.3
HCC1937	–	93.3	–	–	92.9	83.4
HDQ-P1	84.8	–	99.2	103	–	–
Hs578T	–	95.8	–	–	113	89.8
MDA-MB-453	94.9	–	93	89.2	–	–
MDA-MB-468	–	97.3	–	–	103	110
SK-BR-3	–	99.1	–	–	100	109

CCN(CCCOc1ccc2c(Nc3cc(CC(=O)Nc4cccc(F)c4)[nH]n3)ncnc2c1)CCOP(=O)(O)O [Barasertib]
normalised viability [%]
Settings	0.3 nM	1 nM	3 nM	10 nM	100 nM	1000 nM
BT-474	–	108	–	–	95.1	92.1
BT-549	–	93.5	–	–	69.1	69.8
CAL-51	106	–	103	83.6	–	–
CAL-85-1	102	–	89.8	93.2	–	–
CAL-120	–	111	–	–	61.9	51.7
CAL-148	98.4	–	105	39.7	–	–
DU-4475	112	–	105	91.6	–	–
HCC1143	–	124	–	–	78.4	85.9
HCC1599	–	79.4	–	–	81.6	94.2
HCC1937	–	69	–	–	44.3	52.8
HDQ-P1	103	–	106	109	–	–
Hs578T	–	106	–	–	62.6	70.7
MDA-MB-453	104	–	92.8	65.6	–	–
MDA-MB-468	–	115	–	–	34.4	26.5
SK-BR-3	–	107	–	–	82.7	91.9
